In patent US11957671B2, “Benzodioxane modulators of leukotriene A4 hydrolase (LTA4H) for prevention and treatment of aging-associated diseases” (Alkahest, Inc., priority 2021, dated 2024):

Assays:
[1] = test system: aged wild type (WT; C57BL/6) mice; assay: Radial Arm Water Maze (RAWM); format: in vivo, mouse; conditions: 10 mg/kg PO daily, after 29 days of treatment
Experimental: The water maze (see, e.g. Alamed J, et al., Two-day radial-arm water maze learning and memory tasks; robust resolution of amyloid-related memory deficits in transgenic mice, Nat. Protoc., 1(4):1671-79 (2006)), was filled with water at least 24 hours prior to the test to equilibrate to 25° C. The water was dyed with white latex paint to make the animals visible for tracking and to allow for the use of a hidden platform. Eight distinct visual cues were placed at the end of each of eight arms of the RAWM inserts. On day 1 animals were subjected to 5 trials each with a visible platform and a 30-minute inter-trial interval. Animals had 60 seconds to reach the platform. […] The goal arm remained constant, and a different start arm was randomly assigned for each of the 5 trials so that mouse started in every arm once except for the two arms directly across from the platform. The goal arm was switched after every two mice and balanced between all treatment groups. After each trial the mice were placed in an empty cage with blue pads and allowed to dry off under a heat lamp before being placed back into their home cage. Testing day was 48 hours after training, when animals were subjected to the same test of 5 trials each and a 30-minute inter-trial interval, but with a hidden platform. Animals were scored for the number of errors (entry into a non-goal arm) and for latency to reach the platform. All trials were recorded using ANY-maze software.
(§1) Three independent cohorts of aged wild type (WT; C57BL/6) mice between twenty to twenty-two months of age (20-22 mo) were homogenized into two (2) groups by body weight, total distance travelled in the open field test, and average velocity in the open field test. Group 1 was administered vehicle control PO daily. Group 2 was administered 10 mg/kg of the LTA4H inhibitor Compound 1 PO daily. Both groups were dosed for either 10 days or 4 weeks daily. Behavioral assays were run during the last week of dosing and animals were sacrificed at the end of the study for histological and molecular assays.

[2] = test system: Male C57BL/6 mice aged 20-21 months; assay: Cortical brain lysate Cardiovascular Disease Panel (Luminex); format: in vivo, mouse; conditions: 10 mg/kg po one month
Experimental: Male C57BL/6 mice aged 20-21 months were treated with Vehicle or 10 mg/kg Compound 1 LTA4H inhibitor po for one month. Mice were anesthetized and perfused with saline. Brain tissue was collected, and sub dissected into cortex and hippocampus. Cortex samples were lysed in RIPA buffer and the soluble supernatant fraction was sent to Eve Technologies for analysis on the Cardiovascular Disease Panel using Luminex technology.

[3] = test system: LTA4H hydrolysis activity in mouse whole blood; assay: Ex Vivo LTB4 Assay, mouse blood; format: cell-based; conditions: mouse whole blood incubated with compound
Experimental: Whole blood was incubated with Compound 1 or vehicle and then a calcium ionophore (Calcimycin, A23187), or 10% DMSO. LTB4 levels in plasma were measured using ELISA.
FIGS. 36-37 report the results of ex vivo target engagement assays with Compound 1 in human and mouse plasma. Whole blood from human or mouse was incubated with vehicle or Compound 1, following by a calcium ionophore stimulation. Plasma was generated and LTB4 levels were measured using ELISA. LTB4 is the product of LTA4H hydrolysis so this assay reports on LTA4H enzymatic activity.

[4] = test system: aged C57BL6 mice; assay: Open Field; format: in vivo, mouse
Experimental: The open field test was used to evaluate general locomotor activity and exploratory behavior in a novel environment. It consisted of a square arena (16 in ×16 in). Mice were brought to the experimental room for at least 30 min of acclimation to the experimental room conditions (dim lighting) prior to testing. Mice were placed in the center of the arena, recorded, and tracked within a predefined peripheral and center space using the photobeam activity system automated software (ANY-maze) for 15 min. Total distance traveled, average velocity, and time spent in the peripheral and center zones were analyzed.
as §1

[5] = test system: aged mice; assay: CA1 synapse density by histology; format: in vivo, mouse; conditions: preliminary data, pre- and post-synaptic protein staining
[6] = Pharmacokinetic Measurement of Compound 1 (LC-MS/MS); format: in vivo, mouse; conditions: C57BL/6 mice
Text: The mice are subjected to cardiac puncture and blood samples were collected using syringes pre-filled with K2EDTA or heparin. […] Hemi-brain tissue was homogenized with 3× volumes of ice-cold water, then further diluted 2× with blank mouse plasma prior to analysis. […]

[7] = test system: aged wild type (WT; C57BL/6) mice; assay: qPCR of hippocampal gene expression; format: in vivo, mouse
Text: Brains were collected following saline perfusion and separated by mid-sagittal slice with one-half dissected into hippocampus and cortex and then snap frozen on dry ice. RNA was isolated from brain tissue using the RNAeasy Qiagen Kit according to the manufacturer's instruction, briefly, tissue was homogenized using an Omni Bead Ruptor in RLT buffer, RNA was bound to RNA isolation column, washed and eluted. Contaminating DNA was removed by DNAse digestion and cDNA was generated using the Life Technologies SuperScript III Kit. A master mix for qPCR was made using the appropriate forward and reverse primers, and SYBR green reagent or TaqMan reagent. The reaction was run on a Life Technologies QuantStudio Real-Time PCR System and analyzed using the std ddCT protocol on the QuantStudio6 software.
as §1

[8] = test system: aged wild type (WT; C57BL/6) mice; assay: Y-Maze; format: in vivo, mouse; conditions: 10 mg/kg PO daily
Experimental: A large Y-maze test assessed short-term memory of the familiarity of a specific context. Mice were brought to the experimental room for at least 30 min of acclimation to the experimental room conditions (dim lighting) prior to testing. For the initial training trial, the mouse was placed at the end of one arm of a large Y-maze designated “start arm” (arm length: 15 inches). The third arm of the maze was blocked off, allowing the mouse to explore two of the three arms freely (“start arm” and “familiar arm”) for 5 min. Each arm contained spatial cues. Three hours later, the mouse was placed back into the maze in the “start arm,” and allowed to explore all three arms with the third arm unblocked (“novel arm”). Movements in and out of each arm were tracked using automated tracking software (ANY-maze). Testing was performed under dim lighting, and the apparatus was cleaned with 70% ethanol between trials. The time spent and number of entireties into the “novel arm” and “familiar arm” were analyzed, as well as total distance travelled and velocity as measures of general locomotor activity.
as §1

[9] = single oral gavage dose 10, 1, 0.3, 0.1 mg/kg

In the case of `O=C(O)C1CCN(Cc2ccc([C@H]3COc4ccccc4O3)cc2)CC1` [Example 1, 1-{4-[(2S)-2,3-dihydro-1,4-benzodioxin-2-yl]benzyl}piperidine-4-carboxylic acid], the “average number of errors during the last trial” value [1] is reported as “significant decreased in number of errors”, the “latency to find the hidden platform, last trial” value [1] is reported as “trend towards a reduction in time to find the platform” and the “number of errors during the training and testing phases” value [1] is reported as “small, but significant improvement in number of errors”. For the same compound, the “cortical MMP9 protein” value [2] was “trending reduction in cortical MMP9 protein”, the “cortical Pecam-1 protein” value [2] was “trending reduction in cortical Pecam-1 protein” and the “LTB4 plasma levels after calcium ionophore stimulation” value [3] was “reduces LTB4 plasma levels to unstimulated levels”. For the same compound, the “time spent in periphery (P) or center (C)” value ([4]; 4 weeks of dosing) was “no difference between time spent in the periphery (P) or center (C)”, the “total distance traveled in open field” value ([4]; 4 weeks of dosing) was “no change in total distance traveled” and the “velocity in open field” value ([4]; 4 weeks of dosing) was “no change in velocity”. The “time spent in periphery (P) or center (C)” value ([4]; 10 days of dosing) was “no difference between time spent in the periphery (P) or center (C)”, the “total distance traveled in open field” value ([4]; 10 days of dosing) was “no change in total distance traveled” and the “velocity in open field” value ([4]; 10 days of dosing) was “no change in velocity”. For the same compound, the “synapse density in the CA1 region of the hippocampus” value [5] was “trends towards increasing synapse density”, the brain penetration ([6]; single oral dose) was “brain penetrant, even at low doses” and the “blood levels of Compound 1” value [6, 9] was “sustained and detectable in plasma and blood for up to 24 hours”. The “brain levels of Compound 1” value [6, 9] was “sustained and detectable for up to 24 hours”, the “plasma levels of Compound 1” value [6, 9] was “sustained and detectable in plasma and blood for up to 24 hours” and the “dcx hippocampal gene expression” value ([7]; 4 weeks of dosing) was “increased dcx hippocampal gene expression”. For the same compound, the “h2d1 hippocampal gene expression” value ([7]; 10 days and 4 weeks of dosing) was “trends towards reduced h2d1 hippocampal gene expression”, the “creb1 hippocampal gene expression” value ([7]; 10 days of dosing) was “increased creb1 hippocampal gene expression” and the “egr1 hippocampal gene expression” value ([7]; 10 days of dosing) was “increased egr1 hippocampal gene expression”. The “iba1 hippocampal gene expression” value ([7]; 10 days of dosing) was “trends towards reduced iba1 hippocampal gene expression”, the “il1b hippocampal gene expression” value ([7]; 10 days of dosing) was “trends towards reduced il1b hippocampal gene expression” and the “entries into the N and F arms during testing” value ([8]; after 12 days of treatment) was “enter the N and F arms equally”. The “percent time spent in the novel (N) or familiar (F) arms during testing” value ([8]; after 12 days of treatment) was “significantly more time in the novel arm”, the “percent time spent in the novel (N) or familiar (F) arms during testing” value ([8]; after 18 days of treatment) was “significantly improved” and the “percentage of entries into the N and F arms” value ([8]; after 18 days of treatment) was “enter the novel arm significantly more than the familiar arm”. The “percentage of entries into the N and F arms” value ([8]; after 26 days of treatment) was “enter the novel arm significantly more than the familiar arm”.
